“And” between values parts separate entries of the source, which are not always exact repeats. Equal values may be shown once. Read-outs that look alike come from different tables or passages of the source.
Legend:
apoE ko mice = assay: Diet-induced atherosclerosis in Western diet-fed apoE ko mouse; assay type: in vivo; details: 0.25 mg/ml in drinking water (daily dose 1.25 mg), 4 months
Procedure: To test whether oleuropein reduces diet-induced atherosclerosis, oleuropein was administered to apoE ko mice at various doses from 0.25 mg/ml, 2.5 mg/ml, and 25 mg/ml in the drinking water followed by feeding them with a Western diet containing 42% of calories from fat (Harlan-Teklad). […] The mice were sacrificed, blood and tissues collected. Aortas were dissected from the aortic valve to the iliac bifurcation, opened longitudinally, and pinned to a black wax surface. Atherosclerotic lesions were stained with Oil Red O. The total area of the aorta and the atherosclerotic lesion areas were determined by planimetry using Image Pro software.

[1] = molecular target: T1, HIV-1 gp41 fusion core 6HB (N36 + C34) (Human immunodeficiency virus type 1 group M subtype B, UniProt P04578); assay: Fusion core 6HB formation by circular dichroism spectroscopy
T1 sequence (P04578 546-581): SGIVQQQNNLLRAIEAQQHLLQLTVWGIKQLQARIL
Procedure: (§1) Fusion complex formation was carried out by incubating equimolar amounts of HIV-1 gp41 fusion peptides N36 and C34 in PBS (Phosphate Buffer Saline, containing 50 mM sodium phosphate, pH 7.2 and 150 mM NaCl) at 10 or 20 μM each at 37° C. […] Next, an equimolar amount of C34 was added and the samples incubated for 30 min.
CD spectra were recorded on an AVIV 62-DS CD spectrometer, using 1 mm sample cells and a fixed temperature of 4° C. […] Each spectrum is a smoothed average of 10 scans. The bandwidth for each measurement was 1 nm. […] Prior to calculation of the final ellipticity, all spectra were corrected by subtracting the reference spectra of PBS without peptides.

HIV-1 integrase [2] = molecular target: T2, HIV-1 integrase (Human immunodeficiency virus type 1 group M subtype B, UniProt P12497, C1427S/F1332H); assay: HIV-1 integrase 3′-processing assay; assay type: biochemical; details: 21-mer U3 substrate, read-out: Inhibitory Activity EC50 HIV-1 Integrase 3′-Proc
[3] = molecular target: T1, HIV-1 gp41 fusion core 6HB (N36 + C34); assay: Fusion core 6HB formation by native PAGE; details: Inhibitory Activity EC50 Fusion Core Formation 6HB (N36 + C34) N-PAGE, N36 pre-incubated with compound
Procedure: as §1
N-PAGE was carried out as previously reported [13] with modifications that involve fusion peptide concentration, order of reactions, and time of incubation in fusion complex formation. Tris-glycine gels (18%, Invitrogen, Carlsbad, Calif.) were electrophoresed at 120 V for 2 h, stained with Coomassie Blue and analyzed by densitometry.

HIV-1 [4] = assay: HIV-1 core protein p24 production; assay type: cell-based, HIV-1IIIB; details: Human immunodeficiency virus 1, 50% inhibition, read-out: Anti-HIV Activity EC50 P24
HIV-1 integrase [5] = molecular target: T2, HIV-1 integrase; assay: HIV-1 integrase disintegration assay; assay type: biochemical; details: read-out: EC50s of inhibition of disintegration product formation
[6] = parameters: species or system C57BL/6 wild-type mice; details: mouse, in vivo, po
Procedure: To verify that we can administer oleuropein chronically to mice, we added purified oleuropein to drinking water at concentrations of 5 μg/ml, 50 μg/ml, 500 μg/ml, and 5 mg/ml. The water intake of mice averages 5 ml per mouse per day, these dosages of oleuropein result in daily doses of 0.025 mg, 0.25 mg, 2.5 mg, and 25 mg per mouse per day (equivalent to 1, 10, 100, and 1000 mg/kg body weight). 5 male and 5 female C57BL/6 wild-type mice were used for each dose of oleuropein, and housed them in metabolic cages that allow precise determination of water intake and quantitative urine collection.
After seven days to 4 months of chronic steady-state administration, mice blood and urine were collected. 100 μl of serum or urine were extracted with 1 ml ethyl acetate, evaporated to dryness, and reconstituted with 25 μl water and 5 μl was injected for LC-MS analysis.
LC-MS quantitation was performed using an HP1100 equipped with diode array detector and ESI-mass spectrometer. LC was done using a C18 column (4×20 mm), with a 4 minute elution using a gradient of 5-95% CH3CN—H2O containing 1% acetic acid. The diode array recordings were made at 280 nm and 230 nm, and the ESI mass spectrum was made in negative detection mode. Purified oleuropein, and hydroxytyrosol (synthesized by us) were used as standards. The injection volumes were 5 μl. […]

HIV-1 integrase [7] = molecular target: T2, HIV-1 integrase; assay: HIV-1 integrase strand-transfer (integration) assay; assay type: biochemical; details: U3-GT into pUC18, read-out: Inhibitory Activity EC50 HIV-1 Integrase ST
in vitro = details: human
Procedure: Uninfected MT2 and H9 cell lines, and HIV-1IIIB chronically infected H9 (H9/HIV-1IIIB) and HIV-1/IIIB virus, were obtained through the AIDS Research and Reference Reagent Program, NIAID, NIH. […] The cell lines were cultured in RPMI medium 1640 containing 100 U/ml penicillin, 100 μg/ml streptomycin, 2 mM L-glutamine, and 10% heat-inactivated fetal calf serum. Viral stocks were prepared and standardized as described [8].
Cytotoxicity was evaluated by the MTT assay [8].

[8] = test system: HIV-1 primary isolates, M and T tropic strains from different clades; assay: Activity against a panel of HIV-1 primary isolates; assay type: cell-based
HIV-1 [9] = assay type: cell-based, HIV-1IIIB
[10] = Human immunodeficiency virus 1, syncytial formation, 50% inhibition, read-out: Anti-HIV Activity EC50 Syncytium

In the case of `C/C=C1/[C@H](O[C@@H]2O[C@H](CO)[C@@H](O)[C@H](O)[C@H]2O)OC=C(C(=O)OC)[C@H]1CC(=O)OCCc1ccc(O)c(O)c1` (single isomer, unassigned) [Ole, oleuropein], the “serum levels of oleuropein” value (apoE ko mice) is reported as “comparable to those in animals fed a diet supplemented with olive oil”, the EC50 [1] is reported as 62 nM and the EC50 (HIV-1 integrase [2]) is reported as 46 nM. For the same molecule, the EC50 [3] was ~66 nM and 66 nM, the EC50 (HIV-1 [4]) was 73 nM and the EC50 (HIV-1 integrase [5]) was 28 nM. The tolerability in animals [6] was “well tolerated”, the EC50 (HIV-1 integrase [7]) was 56 nM and the IC50 (in vitro) was greater than 10000 nM. The “activity against HIV-1 primary isolates” value [8] was “active”, the EC50 (HIV-1 [9]; Human immunodeficiency virus 1, read-out: average EC50 for syncytial formation) was 55 nM and the EC50 (HIV-1 [9]; [10]) was 55 ± 5 nM.
For `OCCc1ccc(O)c(O)c1` [HT, hydroxytyrosol], the EC50 [1] was 60 nM, the EC50 (HIV-1 integrase [2]) was 54 nM and the EC50 [3] was ~58 nM and 58 nM. It also gave an EC50 (HIV-1 [4]) of 68 nM, an EC50 (HIV-1 integrase [5]) of 18 nM and an EC50 (HIV-1 integrase [7]) of 43 nM. For the same molecule, the IC50 (in vitro) was greater than 10000 nM, the “activity against HIV-1 primary isolates” value [8] was “active” and the EC50 (HIV-1 [9]; [10]) was 61 nM.
